Data taken from patent US20240067693A1, “POLYPEPTIDES AND USES THEREOF” (MEDIMMUNE LIMITED, priority 2020, published 2024).
Numbered stars: 1 amine (or outer) side, 2 acyl side, 3 side chain; on linkers, the order of the positions; unused ones are H or OH. Bridge positions count the residues as written; N and C are the ends. Square brackets hold non-standard residues; d marks the D form. Side chains are listed from the residue outwards. Peptide text beside a SMILES is read from it. * marks the point of attachment. C20 diacid = O=C(O)CCCCCCCCCCCCCCCCCCC(=O)*; C18 diacid = O=C(O)CCCCCCCCCCCCCCCCC(=O)*; γGlu = O=C(O)[C@H](CCC(=O)[*:2])N[*:1]; Aib = CC(C)(N)C(=O)O

Legend:
in vivo = details: male, Sprague-Dawley, rat, 20 nmol/kg
[1] = biological target: T1, human calcitonin receptor (hCTR) (Homo sapiens, UniProt P30988); assay: cAMP production in 1321N1 cells with stable recombinant expression of human calcitonin receptor (hCTR); type: cell-based; details: cAMP, 1321N1 cells, assay buffer with 0.1% BSA; read-out: EC50 (pM) hCTR
T1 construct: expressed in transfected cells
T1 sequence (P30988 25-474): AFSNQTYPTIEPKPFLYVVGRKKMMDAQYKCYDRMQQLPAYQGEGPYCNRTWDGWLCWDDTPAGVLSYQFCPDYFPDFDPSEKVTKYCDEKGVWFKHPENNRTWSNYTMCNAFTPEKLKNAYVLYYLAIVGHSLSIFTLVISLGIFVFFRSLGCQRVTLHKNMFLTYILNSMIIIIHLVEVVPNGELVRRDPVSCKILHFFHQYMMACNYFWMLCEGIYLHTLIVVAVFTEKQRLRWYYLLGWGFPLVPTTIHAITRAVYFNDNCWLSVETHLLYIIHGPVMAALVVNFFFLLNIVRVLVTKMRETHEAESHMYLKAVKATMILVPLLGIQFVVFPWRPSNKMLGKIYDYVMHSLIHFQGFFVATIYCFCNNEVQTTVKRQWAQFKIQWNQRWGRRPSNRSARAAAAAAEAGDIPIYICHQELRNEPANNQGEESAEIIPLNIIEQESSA
In short: (§1)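 Receptor-expressing cells (human receptors in 1321N1, rat receptors in HEK) incubated 30 min at room temperature with peptide in HBSS/HEPES pH 7.4, 0.1% BSA, 0.5 mM IBMX. cAMP read by HTRF; EC50 from 4-parameter fit as % of maximal amylin or calcitonin response.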

[2] = biological target: T2, human amylin receptor (calcitonin receptor co-expressed with receptor activity modifying protein, RAMP3) (hAMYR3) (Homo sapiens, UniProt O60896+P30988); assay: cAMP production in 1321N1 cells with stable recombinant expression of human amylin receptor (hAMYR3); type: cell-based; details: for Ratio (selectivity hAMYR vs hCTR, ratio of EC50 values at the two receptors): EC50 hCTR / EC50 hAMYR3; for EC50: cAMP, 1321N1 cells, assay buffer with 0.1% BSA, read-out: EC50 (pM) hAMYR3
T2 construct: expressed in transfected cells
T2 sequence (P30988 25-474): T1 sequence (P30988 25-474)
T2 sequence (O60896 24-148 partner): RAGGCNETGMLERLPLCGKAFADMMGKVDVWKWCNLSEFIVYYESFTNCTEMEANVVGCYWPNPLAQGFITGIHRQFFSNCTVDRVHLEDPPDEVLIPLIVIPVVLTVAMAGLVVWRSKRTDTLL
In short: as §1

[3] = biological target: T3, rat calcitonin receptor (rat CTR) (Rattus norvegicus, UniProt P32214); assay: cAMP production in HEK cells with stable recombinant expression of rat calcitonin receptor (rat CTR); type: cell-based; details: assay buffer with 0.1% BSA
T3 construct: expressed in transfected cells
T3 sequence (P32214 25-516): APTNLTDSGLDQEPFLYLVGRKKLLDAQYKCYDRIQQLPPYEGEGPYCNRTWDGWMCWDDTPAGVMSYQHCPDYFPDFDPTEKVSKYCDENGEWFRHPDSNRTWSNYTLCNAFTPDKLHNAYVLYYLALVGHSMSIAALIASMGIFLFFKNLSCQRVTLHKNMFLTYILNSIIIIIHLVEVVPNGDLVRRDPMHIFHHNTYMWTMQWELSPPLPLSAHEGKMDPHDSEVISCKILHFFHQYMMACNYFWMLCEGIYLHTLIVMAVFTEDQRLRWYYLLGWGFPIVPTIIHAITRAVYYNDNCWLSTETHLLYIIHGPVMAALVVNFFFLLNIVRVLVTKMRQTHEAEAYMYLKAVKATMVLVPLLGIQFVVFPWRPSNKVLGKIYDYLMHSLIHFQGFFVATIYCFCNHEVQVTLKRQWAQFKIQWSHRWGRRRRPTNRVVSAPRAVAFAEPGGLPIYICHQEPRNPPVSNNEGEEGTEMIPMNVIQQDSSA
Procedure: (§2) The functional activities of lipidated pramlintide analogue peptides, such as cAMP production, were tested in 1321N1 cell line with stable recombinant expression of human calcitonin receptor (hCTR) or human amylin receptor (calcitonin receptor co-expressed with receptor activity modifying protein, RAMP3) (hAMYR3) or HEK cells with stable recombinant expression of rat calcitonin receptor (rat CTR) or rat amylin receptor (calcitonin receptor co-expressed with receptor activity modifying protein, RAMP3) (Rat AMYR3).
(§3) Cryopreserved cell stock was thawed rapidly in a water-bath, suspended in assay buffer (0.1% BSA (Sigma # A3059) in HBSS (Sigma # H8264) with 25 mM HEPES, pH 7.4 and containing 0.5 mM IB MX (Sigma# 17018)) and spun at 240×g for 5 minutes. Cells were re-suspended in assay buffer at a batch-dependent optimized concentration (e.g. hCTR cells at 0.125×10^5 cells/mL, hAMYR3 cells at 0.125×10^5 cells/mL, rat CTR cells at 1x10^5 cells/mL, rat AMYR3 at 2×10^5 cells/mL).
(§4) The test peptide stock was prepared in DMSO and diluted in assay buffer to reach stated concentrations and transferred in duplicates into a 384-black shallow well microtitre assay plate (Corning # 3676). Cells were added to the assay plate, incubated at room temperature for 30 minutes and the cAMP level measured using cAMP dynamic 2 HTRF kit (Cisbio, Cat # 62AM4PEJ), following the two step protocol as per manufacturer's recommendations. The plates were read on an Envision (Perkin Elmer) using excitation wavelength of 320 nm and emission wavelengths of 620nm & 665 nm.
(§5) Data was transformed to % Delta F as described in the manufacturer's guidelines and analyzed as percent activation of maximal amylin or calcitonin effect by 4-parameter logistic fit to determine EC50 values. The selectivity of a peptide to hAMYR vs hCTR is defined as a ratio of EC50 values at the two receptors.

[4] = biological target: T4, rat amylin receptor (calcitonin receptor co-expressed with receptor activity modifying protein, RAMP3) (Rat AMYR3) (Rattus norvegicus, UniProt P32214+Q9JJ73); assay: cAMP production in HEK cells with stable recombinant expression of rat amylin receptor (Rat AMYR3); type: cell-based; details: assay buffer with 0.1% BSA
T4 construct: expressed in transfected cells
T4 sequence (P32214 25-516): T3 sequence (P32214 25-516)
T4 sequence (Q9JJ73 23-147 partner): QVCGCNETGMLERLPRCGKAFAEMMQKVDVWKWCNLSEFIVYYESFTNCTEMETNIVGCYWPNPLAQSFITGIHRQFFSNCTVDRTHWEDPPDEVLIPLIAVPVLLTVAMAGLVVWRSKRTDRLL
Procedure: as §2, §3, §4, §5

lean rats = assay: Rat acute food intake study; type: in vivo; details: lean male Sprague Dawley rats, 20 nmol/kg subcutaneously
Procedure: Male Sprague Dawley rats were obtained from Taconic Denmark, ApS at approximately 7 weeks of age. Rats were implanted with a microchip for identification, housed 4/cage with enrichment, free access to food and water, and allowed one week acclimatisation while non-invasive characterization was performed. Rats were on a 12:12 light:dark cycle that switches at 1pm:1am. Food intake was monitored via the HM2 system (Lafayette Instrument) that allows for monitoring in a home cage. As each rat enters an access tunnel to feed, an IR beam is broken, and the implanted microchip is read. Resulting changes to food weight is then assigned to the specific animal. Social order has shown no impact to overall feeding patterns and amounts.
Rats were sorted into groups based on Day -1 body weight and 24-hour accumulated food intake (n=7 per group). On Day 0 rats were weighed, then fasted for 6 hours. Thirty (30) minutes prior to the reintroduction of food, rats were dosed subcutaneously (5 mL/kg) with 20 nmol/kg of test compound or 60 nmol/kg peptide 1 (pramlintide) diluted in an appropriate vehicle, after which food was returned, and lights went out. Automated food intake was monitored for the following 3 days, and rats were weighed once per day.
Food intake per rat was batched into 1-hour intervals and integrated into Gubra's GubraView data management system. Discrete food intake data was exported into MS Excel from which cumulative food intake data was generated. Cumulative food intake data was then transposed into GraphPad Prism (v8.0.1) for analysis of dark period feeding

| half-life (in vivo; iv) | half-life (in vivo; sc) | EC50 [1] | Ratio (selectivity hAMYR vs hCTR, ratio of EC50 values at the two receptors) [2] | EC50 [2] | EC50 [3] | EC50 [4] | Structure (SMILES) | Cummulative food intake (% vehicle treated intake) At 12 h (lean rats) | Cummulative food intake (% vehicle treated intake) At 24 h (lean rats) | Cummulative food intake (% vehicle treated intake) At 48 h (lean rats) |
| --- | --- | --- | --- | --- | --- | --- | --- | --- | --- | --- |
| 5.4 h | 8.1 h | 14200 pM | 55 | 259 pM | 514 pM | 5.9 pM | CC[C@H](C)[C@H](NC(=O)[C@@H]1CCCN1C(=O)CNC(=O)[C@H](Cc1ccccc1)NC(=O)[C@H](CC(N)=O)NC(=O)C(C)(C)NC(=O)[C@H](CO)NC(=O)[C@H](CO)NC(=O)[C@H](Cc1c[nH]cn1)NC(=O)[C@@H](NC(=O)[C@H](CC(C)C)NC(=O)[C@H](Cc1ccccc1)NC(=O)[C@H](CC(N)=O)NC(=O)[C@H](C)NC(=O)[C@H](CC(C)C)NC(=O)[C@H](CCCNC(=N)N)NC(=O)[C@H](CCC(N)=O)NC(=O)[C@@H](NC(=O)[C@H](C)NC(=O)[C@@H]1CSSC[C@H](NC(=O)[C@H](CCCCN)NC(=O)[C@@H](N)CCCCNC(=O)CC[C@H](NC(=O)CCCCCCCCCCCCCCCCC(=O)O)C(=O)O)C(=O)N[C@@H](CC(N)=O)C(=O)N[C@@H]([C@@H](C)O)C(=O)N[C@@H](C)C(=O)N[C@@H]([C@@H](C)O)C(=O)N1)[C@@H](C)O)C(C)C)C(=O)N[C@@H](CC(C)C)C(=O)N1CCC[C@H]1C(=O)N1CCC[C@H]1C(=O)N[C@H](C(=O)N[C@@H](CC(N)=O)C(=O)N[C@H](C(=O)NCC(=O)N[C@@H](CO)C(=O)N[C@@H](CC(N)=O)C(=O)N[C@H](C(=O)N[C@@H](Cc1ccc(O)cc1)C(N)=O)[C@@H](C)O)C(C)C)[C@@H](C)O [Peptide 35, K(γE-C18diacid)K[CNTATC]ATQRLANFLVHSS(Aib)NFGPILPPTNVGSNTY-amide] (H-K([γGlu-C18 diacid])KCNTATCATQRLANFLVHSS[Aib]NFGPILPPTNVGSNTY-NH2; disulfide 3-8; N-terminus assumed) | 49.8 % vehicle treated intake | 44.8 % vehicle treated intake | 72 % vehicle treated intake |
|  |  | 9560 pM | 8 | 1210 pM | 9050 pM | 23.7 pM | CC[C@H](C)[C@H](NC(=O)[C@@H]1CCCN1C(=O)CNC(=O)[C@H](Cc1ccccc1)NC(=O)[C@H](CC(N)=O)NC(=O)[C@H](CC(N)=O)NC(=O)[C@H](CO)NC(=O)[C@H](CO)NC(=O)[C@H](Cc1c[nH]cn1)NC(=O)[C@H](CCCNC(=N)N)NC(=O)[C@H](CC(C)C)NC(=O)[C@H](Cc1ccccc1)NC(=O)[C@H](CCC(=O)O)NC(=O)[C@H](C)NC(=O)[C@H](CC(C)C)NC(=O)[C@H](CCCNC(=N)N)NC(=O)[C@H](CCC(N)=O)NC(=O)[C@@H](NC(=O)[C@H](C)NC(=O)[C@@H]1CSSC[C@H](NC(=O)[C@@H](N)CCCCNC(=O)CC[C@H](NC(=O)CC[C@H](NC(=O)CCCCCCCCCCCCCCCCCCC(=O)O)C(=O)O)C(=O)O)C(=O)N[C@@H](CC(N)=O)C(=O)N[C@@H]([C@@H](C)O)C(=O)N[C@@H](C)C(=O)N[C@@H]([C@@H](C)O)C(=O)N1)[C@@H](C)O)C(=O)N[C@@H](CC(C)C)C(=O)N1CCC[C@H]1C(=O)N1CCC[C@H]1C(=O)N[C@H](C(=O)N[C@@H](CC(N)=O)C(=O)N[C@H](C(=O)NCC(=O)N[C@@H](CO)C(=O)N[C@@H](CC(N)=O)C(=O)N[C@H](C(=O)N[C@@H](Cc1ccc(O)cc1)C(N)=O)[C@@H](C)O)C(C)C)[C@@H](C)O [Peptide 116] (H-K([γGlu-γGlu-C20 diacid])CNTATCATQRLAEFLRHSSNNFGPILPPTNVGSNTY-NH2; disulfide 2-7) | 51.7 % vehicle treated intake | 43.1 % vehicle treated intake | 50.2 % vehicle treated intake |
